The record followed here is publication PMC12373846, “Hemoglobin as a pseudoperoxidase and drug target for oxidative stress-related diseases” (Signal Transduction and Targeted Therapy, 2025).

Where a name gives a salt, the structure may show the parent alone. Read-outs that look alike come from different tables or passages of the source.

For one data set, the target named is T1, Hb (Homo sapiens, UniProt P68871).
T1 construct: purchased Sigma-Aldrich H7379
Description: ROS-Glo H2O2 assay with Hb. The data set is classed as biochemical. As to the method: Hb (Sigma‒Aldrich, H7379), H2O2 (Sigma‒Aldrich, H1009), and Amplex Red reagents (Invitrogen, A12222) were obtained for the study. A 4 μM H2O2 solution was prepared in 50 mM sodium phosphate buffer (pH 7.2). Then, 49 μl of this mixture was mixed with 1 μl of the test compound in DMSO or distilled water. The mixture was combined with an assay mixture of Amplex Red reagent (20 mM stock to 0.1 mM) and HRP (200 U/ml stock to 0.2 U/ml) and added to the wells at 50 μl/well. After a 60-min incubation at 37 °C, resorufin production was quantified via a microplate fluorescence reader (SpectraMax iD5, Molecular Devices) at ex/em = 535/580 nm. […] For the ROS-Glo assay, the H2O2 substrate solution and ROS-Glo detection solution were prepared according to the manufacturer’s instructions. 10 μM H2O2 and drugs were prepared as in the Amplex Red assay, with HRP, Hb, CAT, or GPx added as needed. The mixture was added to the wells at 100 μl/well and incubated for 60 min at 37 °C. H2O2 substrate solution was added, and the mixture was incubated at room temperature for 30 min. After the H2O2 substrate solution was added and incubated at room temperature for 30 min, the ROS-Glo detection solution was added, and the mixture was incubated for 15 min. Luminescence was measured via iD5 microplate readers. […] The U/ml was calculated on the basis of the amount of H2O2 reduced by Hb during the reaction, using μg/ml and U/mg.
To evaluate the extent of peroxidase function facilitation by HTPEB (1 μM) and KDS12025 (1 μM) in HRP (0.2 U/ml) and Hb (10 μg/ml), we used the ROS-Glo assay over 30 and 60 min. The fold change was calculated by dividing the delta values during the 30-min reaction for the vehicle over drug conditions.
To assess enzyme activity, the amount of H2O2 consumed over a specific time was quantified alongside a standard curve. For the peroxidase function of Hb, Hb was administered at doses ranging from 0.01 to 112 U/ml and preincubated with H2O2 and either DMSO, HTPEB (1 μM), or KDS12025 (1 μM) at 37 °C for 30 min. The remaining H2O2 was measured via the ROS-Glo assay and normalized against conditions without Hb. The dose‒response curve, EC50, and EC20 for H2O2 decomposition were calculated and determined by fitting the data with GraphPad Prism software. The fitting method had no special handling of outliers, and least squares regression with confidence intervals of the parameters was 95%.

The target in another data set is T2, HRP (Armoracia rusticana, UniProt P00433).
T2 sequence (P00433 31-353): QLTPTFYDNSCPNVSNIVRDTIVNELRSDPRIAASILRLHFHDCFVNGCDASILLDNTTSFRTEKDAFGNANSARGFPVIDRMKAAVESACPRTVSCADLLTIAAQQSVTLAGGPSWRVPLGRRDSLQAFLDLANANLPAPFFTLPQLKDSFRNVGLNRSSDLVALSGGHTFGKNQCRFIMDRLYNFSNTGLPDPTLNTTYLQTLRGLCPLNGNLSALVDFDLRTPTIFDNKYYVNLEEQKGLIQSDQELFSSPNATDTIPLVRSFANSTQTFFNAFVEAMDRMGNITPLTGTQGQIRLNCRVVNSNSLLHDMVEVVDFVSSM
Description: H2O2 assay with HRP (HRP-EC50). The data set is classed as biochemical, horseradish. As to the method: Hb (Sigma‒Aldrich, H7379), H2O2 (Sigma‒Aldrich, H1009), and Amplex Red reagents (Invitrogen, A12222) were obtained for the study. A 4 μM H2O2 solution was prepared in 50 mM sodium phosphate buffer (pH 7.2). Then, 49 μl of this mixture was mixed with 1 μl of the test compound in DMSO or distilled water. The mixture was combined with an assay mixture of Amplex Red reagent (20 mM stock to 0.1 mM) and HRP (200 U/ml stock to 0.2 U/ml) and added to the wells at 50 μl/well. After a 60-min incubation at 37 °C, resorufin production was quantified via a microplate fluorescence reader (SpectraMax iD5, Molecular Devices) at ex/em = 535/580 nm. The H2O2-decomposing activity was estimated via the following equation: (sample fluorescence-blank fluorescence)/(control […]-blank fluorescence) × 100. For the ROS-Glo assay, the H2O2 substrate solution and ROS-Glo detection solution were prepared according to the manufacturer’s instructions. 10 μM H2O2 and drugs were prepared as in the Amplex Red assay, with HRP, Hb, CAT, or GPx added as needed. The mixture was added to the wells at 100 μl/well and incubated for 60 min at 37 °C. H2O2 substrate solution was added, and the mixture was incubated at room temperature for 30 min. After the H2O2 substrate solution was added and incubated at room temperature for 30 min, the ROS-Glo detection solution was added, and the mixture was incubated for 15 min. Luminescence was measured via iD5 microplate readers. The H2O2-decomposing activity was estimated via the following equation: (sample luminescence-blank luminescence)/(control luminescence-blank luminescence) × 100. The U/ml was calculated on the basis of the amount of H2O2 reduced by Hb during the reaction, using μg/ml and U/mg.

Data set [1] concerns primary cultured hippocampal astrocytes. Put plainly: oROS-G intracellular H2O2 imaging. The class given is cell-based, mouse. As to conditions: Fig. 3j. As to the method: Primary hippocampal astrocytes were obtained from postnatal day 0‒2 (P0‒2) C57BL/6 mice as previously described.[73] The hippocampal tissue was dissected free of meninges, minced, and dissociated into a single-cell suspension by trituration. The cells were grown in Dulbecco’s modified Eagle’s medium supplemented with D-glucose (4500 mg/L), L-glutamine, sodium pyruvate (110 mg/L), 10% heat-inactivated horse serum, 10% heat-inactivated fetal bovine serum, and 1000 U/ml penicillin‒streptomycin. The cells were maintained at 37 °C in a humidified atmosphere containing 5% CO2.
H2O2 specific, highly sensitive, and fast on-and-off kinetics, a genetically encoded oROS-G plasmid kindly provided by Dr. Andre Berndt. oROS-G was cloned under the GFAP104 promoter and delivered into primary cultured hippocampal astrocytes via the NeoN^TM transfection system (Invitrogen). The cells were treated with various concentrations of Aβ (1 to 10 μM) or 6-OHDA (Tocris, 2547; 10 to 50 μM) to induce aberrant H2O2. For subsequent experiments, 5 μM Aβ and 30 μM 6-OHDA were selected on the basis of initial dose‒response studies. KDS12025 (10 μM) and sodium pyruvate (1 mM) were applied as indicated in each experiment. For live-cell imaging, astrocytes were maintained in a humidified chamber at 37 °C with 5% […] during imaging to preserve physiological conditions. Changes in the fluorescence of oROS-G were recorded via an A1 Nikon confocal microscope equipped with a temperature- and humidity-controlled stage. Images were captured every 20 min for up to 40 h (20for the 6-OHDA experiments) via the NIS-Elements software (Nikon, Japan) for time-lapse imaging. The excitation and emission wavelengths for oROS-G fluorescence were set to 485 nm and 538 nm, respectively. Endpoint fluorescence measurements were also collected for KDS12025 dose-dependent experiments. To analyze the fluorescence intensity, individual regions of interest (ROIs) were manually selected for each astrocyte via NIS-Elements software (Nikon, Japan). The fluorescence intensity changes were normalized to the baseline values (ΔF/F0) to quantify the H2O2 dynamics. To determine the EC50 of KDS12025, endpoint fluorescence intensity data from oROS-G experiments were normalized to those of the Aβ+vehicle control group. The normalized data were analyzed via GraphPad Prism software to fit a four-parameter logistic curve, yielding the EC50 value for the H2O2-decomposing activity of KDS12025.

Another data set in a line: PAMPA BBB permeability. As to conditions: for BCS code: CNS +/- classification: 50 μM, 4 h; for Papp at 4 h, 50 μM: PAMPA, pH 7.4, 50 μM. The data set is classed as in vitro ADME. As to the method: A parallel artificial membrane permeability assay (PAMPA)^70 was performed to validate the blood-brain barrier permeability of KDS12025. The procedure began by preparing a donor solution of the compound in a pH 7.4 donor buffer. This solution was added to the wells of a deep well plate, followed by the addition of a high-sensitivity UV plate filled with donor buffer to serve as the blank sample. An initial sample for the UV plate was taken to establish a baseline reading. The PAMPA sandwich was then assembled by adding the donor plate mixture to the donor plate well, followed by placing a BBB-lipid coated membrane on top and an acceptor plate filled with acceptor buffer. This setup was incubated at 25 °C for a specific duration to allow diffusion. Post-incubation, a sample from the acceptor plate was taken, and the UV absorbance was measured to determine the permeated amount of the test compound. The permeability was then calculated using the PAMPA explorer program, considering the initial donor concentration and the acceptor's concentration after incubation.

Where [2] appears, read: Tables S2, S3, read-out: HRP-EC50.
The mark [3] stands for this setting: Tables S2, S3, read-out: HB-EC50.
Where [4] appears, read: read-out: BCS code: permeability classification.

T1 sequence (P68871 2-147 limits assumed): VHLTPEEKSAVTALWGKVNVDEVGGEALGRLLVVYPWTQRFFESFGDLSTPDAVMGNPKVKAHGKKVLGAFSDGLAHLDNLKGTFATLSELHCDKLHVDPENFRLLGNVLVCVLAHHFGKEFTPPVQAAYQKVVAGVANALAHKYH
T1 sequence (P69905 2-142 partner limits assumed): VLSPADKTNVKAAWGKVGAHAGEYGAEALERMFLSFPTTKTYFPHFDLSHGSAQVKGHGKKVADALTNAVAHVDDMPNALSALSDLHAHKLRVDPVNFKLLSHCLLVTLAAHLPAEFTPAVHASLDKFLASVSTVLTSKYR

As to `NCCc1ccc(C(F)(F)F)cc1` [2-(4-(Trifluoromethyl)phenyl)ethylamine, reference compound], the EC50 at Hb and on HRP was over 10000 nM in each case.

Consider `NCCc1cc(O)c(O)cc1O` [6-OHDA, 6-hydroxydopamine, reference compound], for which the entries for the “oROS-G H2O2 level” value in data set [1] (6-OHDA 10μM), in data set [1] (6-OHDA 30μM) and in data set [1] (6-OHDA 50μM) were 153.8±24.7, 211.9±18.2 and 271.2±14.8, respectively.

`FC(F)(F)c1ccc(CCNc2ccccc2)cc1` [7b, N-(4-(trifluoromethyl)phenethyl)aniline]: the EC50 (as a rule, the midpoint of the concentration-response curve) at HRP (setting [2]) is over 10000 nM.

For the molecule `Oc1ccc(NCCc2ccc(C(F)(F)F)cc2)cc1` [7c, 4-((4-(trifluoromethyl)phenethyl)amino)phenol], the EC50 on Hb (setting [3]) was 5090 nM; on HRP (setting [2]) it was over 10000 nM.

With `COc1ccc(NCCc2ccc(C(F)(F)F)cc2)cc1` [7d, 4-methoxy-N-(4-(trifluoromethyl)phenethyl)aniline], the EC50 turned out to be 23400 nM at Hb (setting [3]) and 13300 nM at HRP (setting [2]).

For the molecule `O=C(O)c1cccc(NCCc2ccc(C(F)(F)F)cc2)c1` [7e, 3-((4-(trifluoromethyl)phenethyl)amino)benzoic acid], the EC50 at Hb (setting [3]) and at HRP (setting [2]) was over 10000 nM throughout.

With `O=C(O)c1ccc(NCCc2ccc(C(F)(F)F)cc2)cc1` [7f, 4-((4-(trifluoromethyl)phenethyl)amino)benzoic acid], the EC50 at Hb (setting [3]) was over 10000 nM; on HRP (setting [2]), 22100 nM.

Take `CNc1ccc(NCCc2cccc(OC)c2)cc1` [8d, N^1-(3-methoxyphenethyl)-N^4-methylbenzene-1,4-diamine hydrochloride salt]: the EC50 on Hb (setting [3]) worked out at 85.5 nM; on HRP (setting [2]), 516 nM.

On to `CNc1ccc(NCCc2ccc(OC)cc2)cc1` [8e, N^1-(4-methoxyphenethyl)-N^4-methylbenzene-1,4-diamine], for which the EC50 was 69.5 nM at Hb (setting [3]) and 790 nM at HRP (setting [2]).

On to `CNc1ccc(NCCc2ccccc2)cc1` [8f, N^1-methyl-N^4-phenethylbenzene-1,4-diamine hydrochloride salt], for which the EC50 at Hb (setting [3]) was found to be 78.1 nM; on HRP (setting [2]) it was 897 nM.

Regarding `CNc1ccc(NCCc2cccc(C(F)(F)F)c2)cc1` [8g, N^1-methyl-N^4-(3-(trifluoromethyl)phenethyl)benzene-1,4-diamine hydrochloride salt], the EC50 at Hb (setting [3]) was found to be 88.4 nM; on HRP (setting [2]) it was 378 nM.

On to `CNc1ccc(NCCc2ccccc2C(F)(F)F)cc1` [8h, N^1-methyl-N^4-(2-(trifluoromethyl)phenethyl)benzene-1,4-diamine hydrochloride salt], for which the EC50 on Hb (setting [3]) was found to be 69.1 nM; on HRP (setting [2]), 500 nM.

With `Nc1ccc(O)c(C(=O)O)c1` [Mesalazine, reference compound], the EC50 on Hb (setting [3]) amounted to 213 nM; at HRP (setting [2]) it was 3600 nM.

As to `CC(=O)[C@H]1CC[C@H]2[C@@H]3CCC4=CC(=O)CC[C@]4(C)[C@H]3CC[C@]12C` [Progesterone], the “BCS code: CNS +/- classification” value in the data set “PAMPA BBB permeability” is listed as “+ (> 10)”. In addition, the Papp at 4 h, 50 μM in the data set “PAMPA BBB permeability” (U.V, read-out: Pe (PAMPA BBB permeability)) is 42.2 ×10⁻⁶ cm/s; in “PAMPA BBB permeability” (setting [4]), over 0.4 ×10⁻⁶ cm/s.

Turning to `CNC(=C[N+](=O)[O-])NCCSCc1ccc(CN(C)C)o1` [Ranitidine], the “BCS code: CNS +/- classification” value in “PAMPA BBB permeability” is reported as “- (< 10)”. Further, the Papp at 4 h, 50 μM in the data set “PAMPA BBB permeability” (setting [4]) is under 0.4 ×10⁻⁶ cm/s.

Take `O=C(O)c1ccccc1O` [Salicylic Acid, reference compound]: the EC50 at Hb (setting [3]) and at HRP (setting [2]) was over 10000 nM in each case.

`Cc1ccc(O)c(C(=O)O)c1` [p-Cresotic acid, reference compound]: the EC50 at Hb (setting [3]) and at HRP (setting [2]) was over 10000 nM throughout.
